# Source: ChEMBL document CHEMBL3430912, “GSK Tres Cantos Anti-Kinetoplastid Screening (TCAKS) Data”
# Legend:
# Trypanosoma cruzi [1] = assay: GSK_TCAKS: pIC50 Trypanosoma cruzi viability assay using beta-GAL activity. This assay was run at single shot at 5uM compound concentration per well. The biological reagents consisted of NIH-3T3 host cells and trypomastigotes parasitic cells; both cell types were set to a 3.3 * 10^5 cells/mL dilution in assay DMEM by means of a CASY cell counter device using a 60um capillary. 6 uL of the mixture were dispensed per well (about 1 * 10^3 host-cells and 1 * 10^3 parasites) with a Multidrop Combi dispenser. […] In all wells, the percentage of DMSO never exceeded 0.5%. Plates incubated for four days at 37C, 5% CO2. The substrate used for the assay fluorescence intensity (FLINT) readout was resorufin-beta-D-galactopiranoside (Sigma-Aldrich) at 5uM per well. It was diluted in PBS supplemented with the soft detergent Igepal (Fluka).; type: functional, organism-based, Mus musculus; conditions: Tulahuen, NIH3T3
# Trypanosoma cruzi [2] = assay: (§1) GSK_TCAKS: pIC50 Trypanosoma cruzi Imaging: Infected Cells. […] Cells were then washed once with PBS before infection. T. cruzi trypomastigotes, collected at days 5 to 8 after infection from LLC-MK2 parasite infected cultures, were allowed to swim out for 4h at 37C from a centrifuged pellet (2,500 rpm/10 min/room temperature). Trypomastigotes were then collected and counted in a CASY Cell Counter. Trypomastigotes, in supplemented DMEM, were added to H9c2 cultures in a multiplicity of infection of 1 and incubated for 18 h. Cells were washed once with PBS before incubation of the infected H9c2 monolayer with trypsin (Life-Technologies) to detach cells from the flask. Cells were counted in a CASY Cell Counter using a 150 um capillary and their density set at 5 * 10^4 cells per mL in supplemented assay DMEM. Infected H9c2 were dispensed into 384-well poly-lysine coated assay plates at 50uL per well using a Multidrop Combi dispenser. After seeding them, the plates were incubated at 37C, 5% CO2 for 72h. Cultures were then fixed and stained by addition of 50 uL of a solution containing 8% formaldehyde and 4 uM DRAQ5 DNA dye (BioStatus, UK) per well. […] Five images were collected per well for reliable statistical analysis. Automated image analysis was performed with a script developed on Acapella High Content Imaging and Analysis Software (PerkinElmer). Output: percentage of infected cells per well as a second infection marker.; type: functional, organism-based, Rattus norvegicus; conditions: H9c2, 4 h
# Trypanosoma cruzi [3] = assay: GSK_TCAKS: pIC50 Trypanosoma cruzi Imaging: Amastigotes/Cell. […] Cells were then washed once with PBS before infection. T. cruzi trypomastigotes, collected at days 5 to 8 after infection from LLC-MK2 parasite infected cultures, were allowed to swim out for 4h at 37C from a centrifuged pellet (2,500 rpm/10 min/room temperature). Trypomastigotes were then collected and counted in a CASY Cell Counter. Trypomastigotes, in supplemented DMEM, were added to H9c2 cultures in a multiplicity of infection of 1 and incubated for 18 h. Cells were washed once with PBS before incubation of the infected H9c2 monolayer with trypsin (Life-Technologies) to detach cells from the flask. Cells were counted in a CASY Cell Counter using a 150 um capillary and their density set at 5 * 10^4 cells per mL in supplemented assay DMEM. Infected H9c2 were dispensed into 384-well poly-lysine coated assay plates at 50uL per well using a Multidrop Combi dispenser. After seeding them, the plates were incubated at 37C, 5% CO2 for 72h. Cultures were then fixed and stained by addition of 50 uL of a solution containing 8% formaldehyde and 4 uM DRAQ5 DNA dye (BioStatus, UK) per well. […] Five images were collected per well for reliable statistical analysis. Automated image analysis was performed with a script developed on Acapella High Content Imaging and Analysis Software (PerkinElmer). Output: number of amastigotes per cell as infection level measurement.; type: functional, organism-based, Rattus norvegicus; conditions: H9c2, 4 h
# Trypanosoma cruzi [4] = assay: as §1, with “H2C9” for “Trypanosoma cruzi”, “H9c2 Host Cardiomyocytes.” for “Infected Cells.”, “Number” for “percentage”, “H9c2 Host Cardiomyocytes nuclei to determine drug-related cytotoxicity.” for “infected cells per well as a second infection marker.”; type: functional, organism-based, Rattus norvegicus; conditions: H9c2, 4 h
# Leishmania donovani [5] = assay: GSK_TCAKS: pIC50 Leishmania donovani viability assay using fluorescence intensity. Assay plates (1536-well) were prepared by adding 30nL per well of compound. For single shot assay, the final compound concentration was 5uM. […] Briefly, eGFP LdBOB axenic amastigotes were harvested, fixed and counted in a CASY cell counter (Roche-Applied Science). A final concentration of 1.5 * 10^5 cells per well were prepared in amastigote media containing 500 U/mL penicillin/streptomycin (Invitrogen) and 6uL was dispensed to each experimental well using a Multidrop Combi dispenser (Thermo Scientific). 6uL of assay media was dispensed to control columns used as reference for 100% compound response. Following incubation for 72 h at 37C, 5% CO2, 2 uL of resazurin was added to each well at a final concentration of 0.5 mM in phosphate buffered saline (PBS) with IGEPAL (Sigma-Aldrich), 0.05% (v/v).; type: functional, organism-based
# Leishmania donovani [6] = assay: GSK_TCAKS: pIC50 Leishmania donovani Imaging: Infected Macrophages. Assay plates (384-well) were prepared by adding 250nL of compound to each well. For single shot assay, the final compound concentration was 5 uM. […] Automated image analysis was performed with a script developed on Acapella High Content Imaging and Analysis Software (PerkinElmer). Output: Percent of infected macrophage cells were reported for each well.; type: functional, organism-based, Homo sapiens; conditions: THP-1
# Leishmania donovani [7] = assay: GSK_TCAKS: pIC50 Leishmania donovani Imaging: Amastigotes/Macrophages. Assay plates (384-well) were prepared by adding 250nL of compound to each well. For single shot assay, the final compound concentration was 5 uM. […] Automated image analysis was performed with a script developed on Acapella High Content Imaging and Analysis Software (PerkinElmer). Output: Average number of amastigotes per macrophage cell were reported for each well.; type: functional, organism-based, Homo sapiens; conditions: THP-1
# Leishmania donovani [8] = assay: GSK_TCAKS: pIC50 Leishmania donovani Imaging: THP-1 Host Macrophages. Assay plates (384-well) were prepared by adding 250nL of compound to each well. For single shot assay, the final compound concentration was 5 uM. […] Automated image analysis was performed with a script developed on Acapella High Content Imaging and Analysis Software (PerkinElmer). Output: THP-1 cell count were reported for each well.; type: functional, organism-based, Homo sapiens
# [9] = test system: Trypanosoma brucei brucei; assay: GSK_TCAKS: pIC50 Trypanosoma brucei viability assay using fluorescence intensity. Assay plates (1536-well) were prepared by dispensing 25nL of compound solution per well using an Echo acoustic dispenser (Labcyte).; type: functional, organism-based; conditions: Lister 427, 2 h
# [10] = test system: Trypanosoma brucei brucei; assay: GSK_TCAKS: pIC50 Trypanosoma brucei viability assay using luminiscence. Assay plates (1536-well) were prepared. T. brucei cultures were harvested and counted in a CASY cell counter. A parasite suspension was prepared at a final concentration of 5 * 10^4 cells/mL in complete HMI9 medium and 6uL was dispensed to all wells containing compounds using a Multidrop Combi dispenser. 6uL of HMI9 media with 0.4% DMSO were dispensed to control columns. Plates were incubated for 24 h at 37C, 5% CO2 then tempered for 10 min at room temperature. ATP content was quantified by adding 4 uL of CellTiter-Glo Reagent (Promega) according to the manufacturer's instructions. Luminescence was measured using a ViewLux.; type: functional, organism-based; conditions: Lister 427, CASY
# [11] = GSK_TCAKS: pIC50 HepG2 human cell line viability assay using luminiscence. […] Seeding density was checked to ensure that new mono-layers were not more than 50% confluent at the time of harvesting. Cell suspension was added to 500 mL of the same medium at a final density of 1.2 * 10^5 cells/mL. This cell suspension was dispensed (25 uL, 3000 cells per well) into 384-well clear-bottom plates using a Multidrop Combi dispenser. Prior to addition of the cell suspension, the screening compounds (250 nL) were pre-dispensed into the plates with an Echo liquid handler. Plates were incubated for 48 h at 37C, 5% CO2. After incubation, plates equilibrated at room temperature for 30 min before proceeding to develop the luminescent signal. The signal developer, CellTiter-Glo Reagent, was allowed to equilibrate at room temperature for 30 min and added to the plates (25uL per well) using a Multidrop Combi dispenser. Plates were left for 10 min at room temperature for stabilization and then read using a ViewLux.; type: toxicity, cell-based
# [12] = molecular target: Sterol 14-alpha demethylase (Trypanosoma cruzi (strain CL Brener), UniProt Q7Z1V1); assay: GSK_TCAKS: pIC50 CYP51 from Trypanosoma cruzi.; type: functional
# Sequence of Sterol 14-alpha demethylase (Q7Z1V1 whole entry): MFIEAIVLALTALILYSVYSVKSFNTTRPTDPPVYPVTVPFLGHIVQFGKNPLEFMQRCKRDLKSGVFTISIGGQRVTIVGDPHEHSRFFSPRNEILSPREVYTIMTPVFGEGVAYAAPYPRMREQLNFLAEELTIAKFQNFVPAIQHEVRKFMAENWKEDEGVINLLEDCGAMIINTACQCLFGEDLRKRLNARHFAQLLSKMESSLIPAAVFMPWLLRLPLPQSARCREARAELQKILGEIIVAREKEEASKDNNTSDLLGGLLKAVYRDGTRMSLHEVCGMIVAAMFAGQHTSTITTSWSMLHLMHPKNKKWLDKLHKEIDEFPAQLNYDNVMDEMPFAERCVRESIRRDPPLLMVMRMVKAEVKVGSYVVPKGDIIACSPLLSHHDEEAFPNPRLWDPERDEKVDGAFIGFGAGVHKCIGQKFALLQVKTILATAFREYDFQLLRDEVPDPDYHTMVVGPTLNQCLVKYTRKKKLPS
SMILES,IC50 (Trypanosoma cruzi [1]) [µM],IC50 (Trypanosoma cruzi [2]) [µM],IC50 (Trypanosoma cruzi [3]) [µM],IC50 (Trypanosoma cruzi [4]) [µM],IC50 (Leishmania donovani [5]) [µM],IC50 (Leishmania donovani [6]) [µM],IC50 (Leishmania donovani [7]) [µM],IC50 (Leishmania donovani [8]) [µM],IC50 [9] [µM],IC50 [10] [µM],IC50 at 48 h [11] [µM],IC50 [12] [µM]
COc1cccc(NS(=O)(=O)c2ccc3ncc(C(=O)NCCC(C)C)c(O)c3c2)c1,> 50.1,31.6,15.8,12.6,> 50.1,> 50.1,> 50.1,> 50.1,0.316,0.631,31.6,6.31
O=C(Nc1cccc(Cl)c1)Nc1ccc([N+](=O)[O-])cc1Cl,1.26,2,1.58,3.98,6.31,3.16,2,25.1,2.51,3.16,31.6,5.01
NCC(Cc1ccccc1)NC(=O)c1cnc(-c2c[nH]c3ncccc23)s1 (configuration not stated),2,> 50.1,20,0.631,> 50.1,15.8,12.6,6.31,0.398,1,79.4,1
Cc1ccc(NC(=O)c2ccnc(N3CCCC3)c2)cc1-c1cc(C(N)=O)ccc1C,6.31,10,3.16,> 50.1,25.1,39.8,25.1,31.6,0.1,0.251,> 100,3.98
Cc1nnc(-c2nc(NCc3ccc(Cl)cc3)c3cccnc3c2O)[nH]1,0.631,0.794,1.26,25.1,2,0.501,0.501,6.31,0.631,0.794,15.8,15.8
CC(=O)Nc1ccc(-c2cnc(N)c(-c3nc4ccc(F)cc4[nH]3)c2)cc1,0.631,> 50.1,> 50.1,0.794,6.31,1,0.501,7.94,0.631,2,10,63.1
Cc1ccc(NC(=O)c2ccnc(N3CCCC3)c2)cc1-c1ccsc1C(N)=O,12.6,12.6,7.94,> 50.1,> 50.1,> 50.1,> 50.1,> 50.1,0.0631,0.0631,> 100,1.26
Cc1nc(-c2ccc3c(c2)OCO3)sc1C(=O)NCc1ccc2c(c1)OCO2,3.55,0.794,0.501,> 50.1,2,0.251,0.794,> 50.1,10,> 39.8,> 100,5.01
Cc1cc(C)n(-c2nc(NC(C)(C)C)nc(N3CCOCC3)n2)n1,5.01,10,3.16,1.26,6.31,7.94,3.98,> 50.1,12.6,3.98,100,> 100
CN1C(=O)c2ccccc2Sc2ccc(NC(=O)NCc3ccco3)cc21,10,12.6,6.31,25.1,> 50.1,> 50.1,25.1,> 50.1,0.398,0.501,> 100,31.6
CC(=O)Nc1ccc(-c2ccnc(Nc3cccc(C#N)c3)n2)cc1,6.31,6.31,3.16,12.6,39.8,15.8,10,10,0.631,0.794,> 100,25.1
